From US20120237482A1, “METHODS FOR TREATMENT OF NEUROLOGICAL DISORDERS BY MODULATION OF MICROGLIAL ACTIVATION” (priority 2011, published 2012) come the findings set out here.

The data set in a line: Case report: with autism given ibuprofen for children during a 7-day fever. Particulars: one child, ibuprofen about 30-40 mg/kg throughout 7 days. In kind it is in vivo, human. The source says:
Subject […] was born […], and developed normally until reaching […] (the “regression time”). […] The […] developed autistic symptoms after the regression time, such as ceasing to respond to their name and losing the skills they had attained so far as their neurological health progressively deteriorated. At or about the same time of the regression time, the […] also developed other medical problems including Vitiligo. After an evaluation, a therapist from the Early Child Intervention Program advised the parents that the child had red flags for autism. Following a viral and bacterial infection […], the […]'s autistic symptoms became severe. The […] was officially diagnosed with autism by a developmental pediatrician, and qualified for the Preschool Program for Children With Disabilities (PPCD). While in the PPCD program, the […] was evaluated by a speech therapist who diagnosed them with severe speech impairments. A video of the child showing severe autistic symptoms is available at http://www.youtube.com/watch?v=GbEeNJgaIQQ. When the child turned […] they developed another viral infection and developed a high fever that lasted over 7 days. […] They were more aware, calm and was saying more words. […] Gastrointestinal problems caused by the ibuprofen soon surfaced, however. […]

Regarding `CC(C)Cc1ccc(C(C)C(=O)O)cc1` (centres unmarked) [ibuprofen], the “autistic symptoms while under ibuprofen” value (autism, viral infection with fever) was “autistic symptoms decreased”. In addition, the “gastrointestinal side effects of ibuprofen” value (little food intake) was “gastrointestinal lesions and ulcers caused by the ibuprofen”.
